{"source": "patent US12240855B2", "about": "“Pyrrolopyrazole derivative” (DAIICHI SANKYO COMPANY, LIMITED, priority 2019, dated 2025)", "test_system": "HCT116 cells", "assay": "cells", "conditions": "Homo sapiens, HCT-116, 72 h, read-out: Test Example 3 HCT116 GI50", "method": "McCoy's 5A medium containing 10% bovine serum was used as the culture medium for each cell. […] They were added to each well of 384-well plates at 40 nL/well using an Echo555 (Labcyte Inc.). […] On the day of compound addition (day 0) and 3 days after compound addition (day 3), 10 μL/well of CellTiter-Glo® 2.0 Assay (Promega, #G9242), which is a reagent for ATP measurement, was added to each well, and the amount of luminescence in each well was measured with EnVision. From the amount of luminescence on the day of compound addition (C0) and the amount of luminescence of the compound non-addition group (C3) and compound addition group (T3) after 3 days of culture, cell viability was calculated based on the following formula. Cell viability (%)=[(T3−C0)/(C3−C0)]×100", "data": [{"smiles": "O=C1c2[nH]nc(-c3ccc(F)c4[nH]c(=O)oc34)c2C(c2cc(Oc3ccccc3)ccc2F)N1CC(F)(F)F", "note": "(centres unmarked) [Example 16, 4-Fluoro-7-[4-(2-fluoro-5-phenoxy]phenyl)-6-oxo-5-(2,2,2-trifluoroethyl)-1,4,5,6-tetrahydropyrrolo[3,4-c]pyrazol-3-yl-1,3-benzoxazol-2(3H)-one]", "values": [{"measurement": "GI50", "result": "> 25", "unit": "µM"}]}, {"smiles": "O=C1c2[nH]nc(-c3cc(Oc4ccccc4)cc4[nH]c(=O)oc34)c2C(c2ccc(F)cc2)N1CC(F)(F)F", "note": "(centres unmarked) [Example 15, 7-[4-(4-Fluorophenyl)-6-oxo-5-(2,2,2-trifluoroethyl)-1,4,5,6-tetrahydropyrrolo[3,4-c]pyrazol-3-yl]-5-phenoxy-1,3-benzoxazol-2(3H)-one]", "values": [{"measurement": "GI50", "result": "> 25", "unit": "µM"}]}, {"smiles": "O=C1c2[nH]nc(-c3cccc4[nH]c(=O)oc34)c2C(c2cccc(Oc3ccc(Cl)cn3)c2)N1CC1CC1", "note": "(centres unmarked) [Example 3]", "values": [{"measurement": "GI50", "result": 13, "unit": "µM"}]}, {"smiles": "CC(F)(F)CN1C(=O)c2[nH]nc(-c3cccc(NC(N)=O)c3)c2C1c1ccc(Cl)cc1", "note": "(centres unmarked) [Example 93, N-{3-[4-(4-Chlorophenyl)-5-(2,2-difluoropropyl)-6-oxo-1,4,5,6-tetrahydropyrrolo[3,4-c]pyrazol-3-yl]phenyl}urea]", "values": [{"measurement": "GI50", "result": "> 25", "unit": "µM"}]}, {"smiles": "CCC(F)(F)CN1C(=O)c2[nH]nc(-c3cccc4[nH]c(=O)oc34)c2C1c1ccc(F)cc1", "note": "(centres unmarked) [Example 11, 7-[5-(2,2-Difluorobutyl)-4-(4-fluorophenyl)-6-oxo-1,4,5,6-tetrahydropyrrolo[3,4-c]pyrazol-3-yl]-1,3-benzoxazol-2(3H)-one]", "values": [{"measurement": "GI50", "result": "> 25", "unit": "µM"}]}, {"smiles": "CC(F)(F)CN1C(=O)c2[nH]nc(-c3cccc4[nH]c(=O)oc34)c2C1c1ccc(Oc2cc(C(F)(F)F)cc(C(F)(F)F)c2)cc1F", "note": "(single isomer, unassigned) [Example 66, 7-[4-{4-[3,5-Bis(trifluoromethyl)phenoxy]-2-fluorophenyl}-5-(2,2-difluoropropyl)-6-oxo-1,4,5,6-tetrahydropyrrolo[3,4-c]pyrazol-3-yl]-1,3-benzoxazol-2(3H)-one (enantiomer)]", "values": [{"measurement": "GI50", "result": "> 25", "unit": "µM"}]}, {"smiles": "O=C1c2[nH]nc(-c3cccc4[nH]c(=O)oc34)c2C(c2ccc(Oc3ccc(Cl)cc3)cc2)N1CC1CC1", "note": "(single isomer, unassigned) [Example 2, 7-{4-[4-(4-Chlorophenoxy)phenyl]-5-(cyclopropylmethyl)-6-oxo-1,4,5,6-tetrahydropyrrolo[3,4-c]pyrazol-3-yl}-1,3-benzoxazol-2(3H)-one (enantiomer)]", "values": [{"measurement": "GI50", "result": 10, "unit": "µM"}]}, {"smiles": "CC(F)(F)CN1C(=O)c2[nH]nc(-c3cccc4[nH]c(=O)oc34)c2C1c1ccnc(Oc2ccccc2)c1", "note": "(centres unmarked) [Example 72, 7-[5-(2,2-Difluoropropyl)-6-oxo-4-(2-phenoxypyridin-4-yl)-1,4,5,6-tetrahydropyrrolo[3,4-c]pyrazol-3-yl]-1,3-benzoxazol-2(3H)-one]", "values": [{"measurement": "GI50", "result": "> 25", "unit": "µM"}]}, {"smiles": "CC(F)(F)CN1C(=O)c2[nH]nc(-c3cccc4[nH]c(=O)oc34)c2C1c1cc(Oc2ccc(F)cc2)ccn1", "note": "(centres unmarked) [Example 78, 7-{5-(2,2-Difluoropropyl)-4-[4-(4-fluorophenoxy)pyridin-2-yl]-6-oxo-1,4,5,6-tetrahydropyrrolo[3,4-c]pyrazol-3-yl}-1,3-benzoxazol-2(3H)-one]", "values": [{"measurement": "GI50", "result": "> 25", "unit": "µM"}]}, {"smiles": "O=C1c2[nH]nc(-c3cccc4[nH]c(=O)oc34)c2C(c2cccc(Oc3ccccc3)c2)N1Cc1ncco1", "note": "(centres unmarked) [Example 12, 7-{5-[(1,3-Oxazol-2-yl)methyl]-6-oxo-4-(3-phenoxyphenyl)-1,4,5,6-tetrahydropyrrolo[3,4-c]pyrazol-3-yl}-1,3-benzoxazol-2(3H)-one]", "values": [{"measurement": "GI50", "result": "> 25", "unit": "µM"}]}, {"smiles": "CC(F)(F)CN1C(=O)c2[nH]nc(-c3cccc4[nH]c(=O)oc34)c2C1c1ccc2c(cnn2-c2ccccc2)c1", "note": "(centres unmarked) [Example 88, 7-[5-(2,2-Difluoropropyl)-6-oxo-4-(1-phenyl-1H-indazol-5-yl)-1,4,5,6-tetrahydropyrrolo[3,4-c]pyrazol-3-yl]-1,3-benzoxazol-2(3H)-one]", "values": [{"measurement": "GI50", "result": 7.9, "unit": "µM"}]}]}
